The text below walks through data of patent US20040039049A1, “Stable amorphous calcium pseudomonate and processes for the preparation thereof” (CHEMAGIS LTD, priority 2002, published 2004).

A short description of series [1]: Stability on storage (related substances and decomposition products). It is filed as physicochemical. Particulars: for Decomposition Products D.P. I / Related Substances (from process) P.A. B / Related Substances (from process) P.A. C / Related Substances (from process) P.A. D / Related Substances (from process) P.A. E: unit assumed.
A short description of series [2]: Decomposition of pseudomonic acid during the process of preparing the calcium salt. To be noted: for Related Substances (from process) P.A. D / Decomposition Products D.P. I / Decomposition Products D.P. II / Related Substances (from process) P.A. B / Related Substances (from process) P.A. C / Related Substances (from process) P.A. E: before / after preparation of the calcium salt; for Decomposition Products D.P. I / Decomposition Products D.P. II / Related Substances (from process) P.A. B / Related Substances (from process) P.A. C / Related Substances (from process) P.A. E: unit assumed. Type of series: physicochemical. The method, then: The calcium pseudomonate solution was prepared by a slow addition of solid calcium hydroxide to a suspension of pseudomonic acid in water. The calcium salt formed is gradually dissolved. The almost clear solution is filtered and frozen.
Pseudomonic acid (100 gr.) is suspended in water (1000 ml). The mixture is cooled below 15° C. and calcium hydroxide (ca. 7.0 gr.) is added gradually until the pH is 8. The slightly turbid mixture is filtered and the solution is frozen and lyophilized. The product obtained is crushed and milled to give amorphous calcium pseudomonate in quantitative yield.

Series [3] is described as follows: Repeat of prior-art process (evaporation of solvents). It is filed as physicochemical. Particulars: prior-art process repeated, regardless of conditions used to distill out the water. The method, then:
Process for the preparation of amorphous calcium pseudomonate is described in U.S. Pat. No. 4,916,155, U.S. Pat. No. 5,191,093 and U.S. Pat. No. 5,436,266. A solution of pseudomonic acid is dissolved in a mixture of methanol and water and neutralized to pH 7.1 with calcium oxide. The solution is filtered and the solvents are evaporated under reduced pressure to give solid foam. Trituration of the foam with diethyl ether affords amorphous calcium pseudomonate.
This decomposition occurred regardless of the conditions used to distill out the water.

For series [4] the following is noted: on storage, prior patents; cited from earlier work.

As to `C/C(=C\C(=O)OCCCCCCCCC(=O)[O-])C[C@@H]1OC[C@H](C[C@@H]2O[C@H]2[C@@H](C)[C@H](C)O)[C@@H](O)[C@H]1O.C/C(=C\C(=O)OCCCCCCCCC(=O)[O-])C[C@@H]1OC[C@H](C[C@@H]2O[C@H]2[C@@H](C)[C@H](C)O)[C@@H](O)[C@H]1O.[Ca+2]` [amorphous calcium pseudomonate, calcium pseudomonate], the “Decomposition on storage (in words)” value in series [1] (stored at an appropriate temperature) is recorded as “did not show decomposition”. In addition, in series [1] (t = 0), the “Decomposition Products D.P. II” value is on record as 1.00, the Decomposition Products D.P. I is 0.44%, the Related Substances (from process) P.A. B was determined as 0.1% and the Related Substances (from process) P.A. C came out at 0.09%. In series [1] (t = 0), this molecule gave a Related Substances (from process) P.A. D of 0.9% and a Related Substances (from process) P.A. E of 0.1%. In series [1] (t = 18 months (at 2-8° C.)), the “Decomposition Products D.P. II” value is 1.06, the Decomposition Products D.P. I turned out to be 0.62%, the Related Substances (from process) P.A. B is 0.18% and the Related Substances (from process) P.A. C was 0.08%. In series [1] (t = 18 months (at 2-8° C.)), this molecule showed a Related Substances (from process) P.A. D of 0.97% and a Related Substances (from process) P.A. E of 0.09%. Also, in series [2], the “Related Substances (from process) P.A. D” value is given as 1.25, the Decomposition Products D.P. I was 0.62%, the Decomposition Products D.P. II stood at 1.1% and the Related Substances (from process) P.A. B came out at 0.4%. In addition, in series [2], the Related Substances (from process) P.A. C turned out to be 0.1% and the Related Substances (from process) P.A. E is 0.15%. Moreover, the “Decomposition during the evaporation of the solvents (in words)” value in series [3] is “appreciable decomposition”. In series [4], the “Thermal stability (in words)” value is on record as “thermally labile”.

Regarding `C/C(=C\C(=O)OCCCCCCCCC(=O)O)C[C@@H]1OC[C@H](C[C@@H]2O[C@H]2[C@@H](C)[C@H](C)O)[C@@H](O)[C@H]1O` [pseudomonic acid, Pseudomonic acid A], in series [2], the “Related Substances (from process) P.A. D” value is 1.17, the Decomposition Products D.P. I turned out to be 0.58%, the Decomposition Products D.P. II turned out to be 0.81% and the Related Substances (from process) P.A. B was determined as 0.57%. Moreover, in series [2], the Related Substances (from process) P.A. C was determined as 0.16% and the Related Substances (from process) P.A. E is 0.21%. Further, the “Decomposition during the preparation of the calcium salt (in words)” value in series [2] (process of the present invention) is on record as “no decomposition”.
